pIC50: −log10 of the molar value. Strand notation (5' to 3'): a small letter for the sugar, then the base; units joined by * are phosphorothioate-linked, units joined directly phosphodiester-linked; [ ] holds rarer units or linkages, { } end groups; capitals alone tell only the bases. e = 2'-O-(2-methoxyethyl) (MOE); [5mC] = 5-methylcytosine; d = 2'-deoxy (DNA)
Columns and labels:
[1] = tested on: human PKK mRNA; experiment: Antisense inhibition of human PKK mRNA in HepaRG cells, 5,000 nM (Example 2); assay type: cell-based
Procedure, shortened: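 qRT-PCR (RTS3454) read-out, RIBOGREEN-normalized; % inhibition vs untreated cells. HepaRG, 20,000 cells/well, electroporation, 5,000 nM ASO, ~24 h.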

[2] = tested on: human PKK mRNA; experiment: Dose-dependent antisense inhibition of human PKK in HepaRG cells, 0.19-5.00 uM (Example 5); assay type: cell-based; settings: for percent inhibition of PKK mRNA, 0.19 μM: 0.19 μM antisense oligonucleotide; for percent inhibition of PKK mRNA, 0.56 μM: 0.56 μM antisense oligonucleotide; for percent inhibition of PKK mRNA, 1.67 μM: 1.67 μM antisense oligonucleotide; for percent inhibition of PKK mRNA, 5.00 μM: 5.00 μM antisense oligonucleotide
Procedure, shortened: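 PKK mRNA knockdown was measured by real-time PCR (primer probe set RTS3454) about 16 h after electroporating 20,000 HepaRG cells per well with oligonucleotide at four doses from 0.19 to 5.00 μM. Levels were adjusted to RIBOGREEN-measured total RNA, and IC50 values were calculated.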

[3] = HepaRG cells, electroporation, approximately 16 hours, Table 40
[4] = Table 13, human PKK mRNA in HepaRG cells, 5-10-5 gapmers
[5] = HepaRG cells, electroporation, approximately 16 hours, Table 41
[6] = 4 point dose response, HepaRG cells, Table 41
[7] = Table 34, HepaRG, electroporation, ~16 h
[8] = Table 34, PKK mRNA, HepaRG, electroporation, ~16 h
[9] = HepaRG cells, electroporation, approximately 16 hours, Table 37
[10] = human PKK mRNA in HepaRG cells, 5-10-5 gapmers, Table 14
[11] = HepaRG cells, electroporation, approximately 16 hours, Table 38
[12] = 4 point dose response, HepaRG cells, Table 38
[13] = HepaRG cells, electroporation, approximately 16 hours, Table 35

“547520 (antisense eT*e[5mC]*eA*eG*e[5mC]*d[5mC]*dA*dG*dA*d[5mC]*dA*dT*dT*dG*dT*e[5mC]*e[5mC]*eT*e[5mC]*eA) [compound 547520]” was tested. Which “% inhibition” value ([1]; HepaRG cells, electroporation, 5,000 nM antisense oligonucleotide, approx. 24 hours, primer probe set RTS3454, relative to untreated control cells, Table 11) did it give?
The value was 76%.

What about the “percent inhibition of PKK at 0.19 μM” value [2, 3] of the same substance?
Its value is 0%.

What about the “percent inhibition of PKK at 0.56 μM” value [2, 3] of the same substance?
The value was 25%.

What about the “percent inhibition of PKK at 1.67 μM” value [2, 3] of the same substance?
The value was 66%.

And the “percent inhibition of PKK at 5.00 μM” value [2, 3]?
The value was 64%.

And the pIC50 ([2]; 4 point dose response, HepaRG cells, Table 40)?
The pIC50 was 5.96.

Which results are given for “547564 (e[5mC]*e[5mC]*e[5mC]*eT*e[5mC]*dT*dG*dT*d[5mC]*dT*dT*dA*dG*dA*dT*eG*eT*e[5mC]*e[5mC]*eA; antisense) [compound 547564]”?
% inhibition [1, 4]: 94%; percent inhibition of PKK at 5.00 μM [2, 5]: 97%; percent inhibition of PKK at 0.19 0μM [2, 5]: 46%; percent inhibition of PKK at 0.56 0μM [2, 5]: 66%; percent inhibition of PKK at 1.67 1μM [2, 5]: 90%; pIC50 [2, 6]: 6.70; percent inhibition of PKK at 0.19 μM [2, 7]: 51%; percent inhibition of PKK at 0.56 μM [2, 7]: 48%; percent inhibition of PKK at 1.67 μM [2, 7]: 82%; percent inhibition of PKK at 5.00 μM [2, 7]: 90%; pIC50 [2, 8]: 6.70

What does the source list for “547575 (eG*eG*eG*eA*eA*dA*d[5mC]*dT*d[5mC]*dT*dT*dT*d[5mC]*d[5mC]*dT*e[5mC]*eG*e[5mC]*e[5mC]*e[5mC]; antisense) [compound 547575]”?
% inhibition [1, 4]: 89%; percent inhibition of PKK at 0.19 μM [2, 9]: 0%; percent inhibition of PKK at 0.56 μM [2, 9]: 34%; percent inhibition of PKK at 1.67 μM [2, 9]: 82%; percent inhibition of PKK at 5.00 μM [2, 9]: 93%; pIC50 ([2]; 4 point dose response, HepaRG cells, Table 37): 5.96

With “547584 (eG*eT*eA*eT*e[5mC]*dA*d[5mC]*dT*dG*dT*d[5mC]*d[5mC]*dT*dA*dT*eA*eT*e[5mC]*eA*e[5mC]; antisense) [compound 547584]” as the substance, how does the “% inhibition” value [1, 10] read?
The value was 85%.

And the “percent inhibition of PKK at 0.19 μM” value [2, 11]?
The value was 26%.

What about the “percent inhibition of PKK at 0.56 μM” value [2, 11] of the same substance?
The value was 34%.

What about the “percent inhibition of PKK at 1.67 μM” value [2, 11] of the same substance?
Its value is 76%.

What about the “percent inhibition of PKK at 5.00 μM” value [2, 11] of the same substance?
Its value is 86%.

What about the pIC50 [2, 12] of the same substance?
The pIC50 was 6.15.

What about the “percent inhibition of PKK mRNA, 0.19 μM” value ([2]; HepaRG cells) of the same substance?
The value was 0%.

What about the “percent inhibition of PKK mRNA, 0.56 μM” value ([2]; HepaRG cells) of the same substance?
The value was 21%.

What about the “percent inhibition of PKK mRNA, 1.67 μM” value ([2]; HepaRG cells) of the same substance?
The value was 64%.

And the “percent inhibition of PKK mRNA, 5.00 μM” value ([2]; HepaRG cells)?
Its value is 92%.

What about the pIC50 ([2]; HepaRG cells, 0.19-5.00 μM) of the same substance?
The pIC50 was 5.89.

What does the source list for “547585 (eA*eA*e[5mC]*eA*eG*dT*dA*dT*d[5mC]*dA*d[5mC]*dT*dG*dT*d[5mC]*e[5mC]*eT*eA*eT*eA; antisense) [compound 547585]”?
% inhibition [1, 10]: 85%; percent inhibition of PKK at 0.19 μM [2, 11]: 42%; percent inhibition of PKK at 0.56 μM [2, 11]: 57%; percent inhibition of PKK at 1.67 μM [2, 11]: 70%; percent inhibition of PKK at 5.00 μM [2, 11]: 95%; pIC50 [2, 12]: 6.40; percent inhibition of PKK mRNA, 0.19 μM ([2]; HepaRG cells): 0%; percent inhibition of PKK mRNA, 0.56 μM ([2]; HepaRG cells): 46%; percent inhibition of PKK mRNA, 1.67 μM ([2]; HepaRG cells): 89%; percent inhibition of PKK mRNA, 5.00 μM ([2]; HepaRG cells): 93%; pIC50 ([2]; HepaRG cells, 0.19-5.00 μM): 6.10

How did the “% inhibition” value [1, 10] turn out when “547587 (e[5mC]*eT*eA*eT*eA*dA*d[5mC]*dA*dG*dT*dA*dT*d[5mC]*dA*d[5mC]*eT*eG*eT*e[5mC]*e[5mC]; antisense) [compound 547587]” was run?
Its value is 96%.

And the “percent inhibition of PKK at 5.00 μM” value [2, 5]?
The value was 97%.

And the “percent inhibition of PKK at 0.19 0μM” value [2, 5]?
Its value is 38%.

What about the “percent inhibition of PKK at 0.56 0μM” value [2, 5] of the same substance?
Its value is 64%.

What about the “percent inhibition of PKK at 1.67 1μM” value [2, 5] of the same substance?
The value was 91%.

And the pIC50 [2, 6]?
Its pIC50 is 6.52.

And the “percent inhibition of PKK at 0.19 μM” value [2, 7]?
Its value is 20%.

What about the “percent inhibition of PKK at 0.56 μM” value [2, 7] of the same substance?
The value was 62%.

What about the “percent inhibition of PKK at 1.67 μM” value [2, 7] of the same substance?
Its value is 84%.

What about the “percent inhibition of PKK at 5.00 μM” value [2, 7] of the same substance?
The value was 86%.

What about the pIC50 [2, 8] of the same substance?
Its pIC50 is 6.30.

With “547602 (antisense eT*e[5mC]*eA*e[5mC]*eT*dG*dT*dA*d[5mC]*d[5mC]*dT*dA*dT*dA*dA*e[5mC]*eT*e[5mC]*eT*eA) [compound 547602]” as the substance, how does the “% inhibition” value [1, 10] read?
Its value is 93%.

What about the “percent inhibition of PKK at 0.19 μM” value [2, 13] of the same substance?
Its value is 18%.

What about the “percent inhibition of PKK at 0.56 μM” value [2, 13] of the same substance?
Its value is 53%.

And the “percent inhibition of PKK at 1.67 μM” value [2, 13]?
The value was 92%.

And the “percent inhibition of PKK at 5.00 μM” value [2, 13]?
The value was 87%.

What about the “percent inhibition of PKK at 5.00 μM” value [2, 5] of the same substance?
Its value is 93%.

And the “percent inhibition of PKK at 0.19 0μM” value [2, 5]?
Its value is 1%.

What about the “percent inhibition of PKK at 0.56 0μM” value [2, 5] of the same substance?
Its value is 9%.

What about the “percent inhibition of PKK at 1.67 1μM” value [2, 5] of the same substance?
The value was 52%.

And the pIC50 ([2]; 4 point dose response, HepaRG cells, Table 35)?
The pIC50 was 6.30.

And the pIC50 [2, 6]?
Its pIC50 is 5.85.

Which results are given for “547615 (antisense eT*e[5mC]*e[5mC]*eT*eA*dT*dA*dT*d[5mC]*dA*d[5mC]*dT*dG*dT*dA*e[5mC]*e[5mC]*eT*eG*eT) [compound 547615]”?
% inhibition [1, 10]: 84%; percent inhibition of PKK at 0.19 μM [2, 11]: 20%; percent inhibition of PKK at 0.56 μM [2, 11]: 26%; percent inhibition of PKK at 1.67 μM [2, 11]: 41%; percent inhibition of PKK at 5.00 μM [2, 11]: 84%; pIC50 [2, 12]: 5.85

From patent US11840686B2, “Modulation of prekallikrein (PKK) expression” (Ionis Pharmaceuticals, Inc., priority 2013, dated 2023)
